Reference: patent US7803768B2, “Method for treatment of hyperglycemia in a subject in need thereof” (Kyoto University, priority 2005, dated 2010)
Where no end group is shown, it is not given here. [ ]: non-standard residue; d: D form. The star is where a group is joined. Octanoyl = CCCCCCCC(=O)*

How the values were obtained:
[1] = tested on: neonatal rat STZ model; test: neonatal rat STZ model, human ghrelin or GHRP-2 (Examples 3 and 4); format: in vivo, Sprague Dawley rats; conditions: 9th week after birth; for Body weights: FIG. 7A / FIG. 8A; for Pancreas weights: FIG. 7B / FIG. 8B; for Insulin Content (Gut Side): calculated from gut-side pancreas sample; for Insulin Content (Gut Side) / Insulin Content (Spleen Side): mean ± SE; for Insulin Content (Spleen Side): calculated from spleen-side pancreas sample
Text: Sprague Dawley female pregnant rats, purchased from Charles River, were allowed free access to tap water and a standard pellet rat diet (CRF-1, Oriental Yeast Co., Ltd.), and natural deliveries were allowed. Three experimental groups as follows were set: control group wherein rats received single peritoneal injection of citrate buffer immediately after birth; STZ-vehicle group wherein rats received single peritoneal injection of STZ, and then vehicle (5% mannitol solution) was subcutaneously administered twice a day from the 2nd day after birth for 7 days; and STZ-human ghrelin group wherein rats received single peritoneal injection of STZ, and then human ghrelin (sequence No. 1, 100 μg/kg body weight) was subcutaneously injected twice a day from a 2nd day after birth for 7 days.
STZ was prepared and administered as in the example 1. Each male neonatal rat was checked for urinary sugar on the 2nd day with Pretest 3aII (Wako Pure Chemical Industries, Ltd.). Only rats that were glycosuric (3+ value with Pretest 3aII) at day 2 after birth were included in the following studies. The rats were weaned in the evening on the 20th day after birth. Blood samples were collected from tail vein while awake at 8th week (57th day) after birth to measure plasma glucose and insulin concentrations. In addition, after measuring body weight at 9th week (62nd or 63rd day) after birth, blood samples were collected from abdominal aorta under anesthesia with intraperitoneal injection of pentobarbital sodium (50 mg/kg). Whole pancreases were removed and weighed. Thereafter, the pancreases were divided into two pieces and kept for insulin content measurement. Blood samples were centrifuged immediately at 4° C. to prepare plasma samples, and kept at −80° C. until measurement of glucose and insulin concentrations. Glucose concentration was measured using a Glucose CII-test Wako (Wako Pure Chemical Industries, Ltd.), while insulin concentration was measured using a highly sensitive insulin measurement kit (Morinaga Institute of Biological Science, Inc.).
Experimental materials, experimental methods and evaluation methods were similar to those in the example 2. As a test substance, 100 μg/kg of GHRP-2 was subcutaneously administered twice a day from a 2nd day after birth for 7 days (an STZ-GHRP-2 group).

[2] = tested on: β cells; test: β cell replication, phospho-histone H3 / insulin double staining of pancreatic sections (Example 2); format: in vivo, rat; conditions: for Double positive cells for phospho-histone H3 and insulin: 10-week-old rats, FIG. 6, no significant difference among four groups; for Increase of double positive cells for phospho-histone H3 and insulin: 21-day-old rats, FIG. 5B
Description: Pancreatic sections that had not been used for morphological studies were used to examine β cell replication. The sections were subjected to double staining for phospho-histone H3 (Ser10) and insulin. The sections were incubated overnight with 50-fold dilution of anti-phospho-histone H3 (Ser10) antibody (Cell Signaling Technology) at 4° C. Thereafter, the sections were incubated with guinea pig anti-insulin antibody at a room temperature for 1 hour. After washing with PBS for 6 times, the sections were incubated at a room temperature for 30 minutes in a blocking solution with a secondary antibody conjugated with fluorescence (Alexa Fluor 488 and 546, Molecular Probe). After washing with PBS, sections were mounted with mounting medium containing DAPI (Vector Laboratories) and examined with confocal laser scanning microscopy (Leica Microsystems). At least 1,000β cells were counted per section.

[3] = tested on: n0-STZ model; test: n0-STZ model: neonatal streptozotocin-treated rats given rat ghrelin (Example 1); format: in vivo, Sprague Dawley rats; conditions: for Plasma Insulin: 100 μg/kg s.c. twice a day, 2nd to 8th day after birth, mean ± SE
Text: Female or male Sprague Dawley rats, purchased from Charles River were, were allowed free access to tap water and a standard pellet rat diet (352 kcal/100 g, CE-2, CLEA). Females were caged with a male for one night, and pregnancy was detected by abdominal palpation 14 days later. Natural birth occurred 22 days after mating. We examined three experimental groups as follows: a control group (Sprague Dawley rats) wherein newborn rats received a single intraperitoneal injection of citrate buffer; an n0-STZ group wherein rats received a single intraperitoneal injection of streptozotocin (STZ); and an n0-STZ/ghrelin group wherein rats received a single intraperitoneal injection of streptozotocin, and then received rat-derived ghrelin (hereafter reffered to as rat ghrelin, sequence No. 3, 100 μg/kg body weight) by subcutaneous injection twice a day on the 2nd to 8th day after birth for 7 days.
Streptozotocin (Sigma, 100 mg/kg body weight) was dissolved in citrate buffer (0.05 mmol/L, pH4.5) and immediately injected intraperitoneally once into a rat immediately after birth. Pups were left with their mothers. Each neonatal rat was checked for urinary sugar on the 2nd day with Multistix SG (Bayer Medical). Only rats that were glycosuric (3+ value with Multistix SG test) at day 2 after birth were included in the n0-STZ model group. Animals were killed at 21 or 70 days by bleeding under anesthesia with intraperitoneal injection of pentobarbital sodium (50 mg/kg).
After excision, pancreases were removed and weighed. To measure insulin content, pancreases (35-50 mg) were homogenized and centrifuged in 5 ml of acid-ethanol (0.15 M HCl 75% (v/v)-ethanol solution), and the supernatants were kept at −80° C. For immunohistochemistry, additional pancreases were fixed in 4% paraformaldehyde fixative for 24 hours, and embedded in paraffin.
Insulin and pdx-1 were detected immunohistochemically on 3 μm-thick tissue sections using an indirect peroxidase-labeling technique. Each section was incubated with a primary antibody (guinea pig anti-porcine insulin, DACO) or (rabbit anti-mouse/rat IDX-1; CHEMICON) for 1 hour. Staining was performed by incubation with 3,3′-diaminobenzidine tetrahydrochloride (DAB) kit (DakoCytomation). Quantitative evaluations of total β cells area were performed by a computer-assisted image analysis procedure using an Olympus BX 51 microscope connected to a digital camera DP 12 and Mac SCOPE Ver2.6 software (Mitani, Fukui, Japan). β cells area and total pancreatic section area were evaluated for each stained section. A relative volume of β cells was determined by a sterological morphological method, with calculation of the ratio between the areas occupied by immunoreactive cells and those occupied by total pancreatic cells.
Total RNA was extracted from rat pancreases as previously reported (Biochem. Biophys. Res. Commun., 214, pp. 239-246, 1995). To synthesis the first-strand cDNA, the extracted products were used as templates in reactions containing RT (Invitrogen) and the target 3′ primer. An RT-PCR analysis was performed according to a method previously reported (Biochem. Biophys. Res. Commun., 214, pp. 239-246, 1995). The first strand cDNA was used in subsequent PCR analyses. In the PCR analyses, oligonucleotide primers as follows were used for each target cDNA. The identity of the PCR product was confirmed by agarose gel electrophoresis.
Realtime PCR was performed as follows. The cDNA (1 μl) was mixed with 2×PCR Master Mix (Applied Biosystems) (25 μl), sterilized distilled water (23 μl), and sense and antisense primers ([…], 0.5 μl) of insulin and Pdx-1. Forty cycles of PCR amplification were carried out using the thermal cycler system (ABI PRISM 7700, Applied Biosystems, Japan), for 15 seconds at 95° C. followed by 60 seconds at 60° C. The concentration of each mRNA product was quantified using calibration curves expressing the fluorescence intensity against the amount of standardized PCR product. […]

[4] = tested on: high fatty acid diet-fed mice; test: high fatty acid diet-fed mice with linoleic acid loading (Example 5); format: in vivo, Crj:CD1(ICR) mice
Text: Male Crj:CD1(ICR) mice (Charles River Japan) were allowed free access to tap water and a standard pellet mouse diet (CRF-1, Oriental Yeast Co., Ltd.) (with lighting hours from 21 to 9 o'clock). Normal control mice were kept in this condition (normal diet, an ND group). A high fatty acid diet group (High Fat Diet, an HFD group) was allowed to freely take a mixture of 5 g CRF-1 (powder) with 1 g linoleic acid as a high fatty acid diet from the 4th week after birth. As test substances, a vehicle (5% mannitol solution) (an HFD-vehicle group) or 300 μg/kg of human ghrelin (an HFD-ghrelin group) was administered twice a day (once a day in a holiday) for about 7 weeks from the day of the start of high fatty acid diet load. Changes in the body weights and ad lib blood sugar levels after the start of test substance administration were monitored. In addition, mice were fasted overnight on the 50th day from the start of test substance administration, and then linoleic acid (1 mL/kg, intraperitoneal administration) was acutely loaded on a next day to measure plasma glucose and plasma insulin concentrations 1 hour later. The blood sugar value was measured using Antisense II (Horiba, Ltd.), while plasma glucose concentration and insulin concentration were measured using a Glucose CII-test Wako (Wako Pure Chemical Industries, Ltd.) and a Lebis insulin kit (TMB for a mouse) (Shibayagi Co. Ltd.), respectively.

A[dW]AW[dF]K-NH2 [GHRP-2, reference compound]
Insulin contents in pancreases relative to the STZ-vehicle group [1]: higher than those of the STZ-vehicle group | Body weights [1]: not significantly different from those of the control group | Pancreas weights [1]: greater than those of the STZ-vehicle group | Insulin Content (Gut Side) [1]: 81.7 ± 4.6 μg/pancreas | Insulin Content (Spleen Side) [1]: 146.8 ± 10.9 μg/pancreas

GSS(n-octanoyl)FLSPEHQKAQQRKESKKPPAKLQPR [rat ghrelin]
Double positive cells for phospho-histone H3 and insulin ([2]; STZ model): tendency for double positive cells for phospho-histone H3 and insulin to increase | Double positive cells for phospho-histone H3 and insulin ([2]; control group (no STZ)): tended to decrease | Increase of double positive cells for phospho-histone H3 and insulin ([2]; ghrelin group as compared to control rats): approximately 1.7 fold | Increase of double positive cells for phospho-histone H3 and insulin ([2]; n0-STZ/ghrelin group as compared to n0-STZ rats): ~15 fold | Plasma Insulin ([3]; 10-week-old rats): 0.93 ± 0.49 ng/mL | Plasma Insulin ([3]; 21-day-old rats): 0.35 ± 0.17 ng/mL | Insulin mRNA expression levels within the pancreases ([3]; 21st day after birth, FIG. 1A): returned to levels similar to those of the control group | pdx-1 gene expression levels in pancreas ([3]; 21st day after birth, FIG. 2A): recovered to the levels similar to those in the control group | Islet of Langerhans size, insulin immunostaining of pancreases ([3]; 21st day after birth, FIGS. 1B-E): larger than that of the n0-STZ group but smaller than that of the control group | Pdx-1 gene expression in pancreas ([3]; 70th day after birth (adult rats), FIG. 4A): returned to the level close to that of the control group | Insulin mRNA expression in pancreas ([3]; 70th day after birth (adult stage), FIG. 3B): a level similar to that of the control group | Islet of Langerhans size, insulin immunohistochemical staining ([3]; 70th day after birth, FIGS. 3C-F): larger than that of the n0-STZ group but smaller than that of the control group

GSS(n-octanoyl)FLSPEHQRVQQRKESKKPPAKLQPR (GSS(Octanoyl)FLSPEHQRVQQRKESKKPPAKLQPR; listed as Homo Sapiens) [human ghrelin]
ad lib blood sugar levels ([4]; 43rd day of high fatty acid diet and 300 μg/kg s.c. administration, FIG. 9B): tended to decrease as compared to the HFD-vehicle group | Plasma glucose concentrations after linoleic acid loading ([4]; 1 hour after 1 mL/kg linoleic acid i.p., FIG. 10B): tended to be low as compared to the HFD-vehicle group | Plasma glucose concentrations before linoleic acid loading ([4]; after 50 days of high fatty acid diet and 300 μg/kg administration, fasted overnight, mean of 8 mice ± standard error): 141 ± 5 mg/dL | Plasma insulin concentrations after linoleic acid loading ([4]; after 50 days, fasted overnight, 1 hour after 1 mL/kg linoleic acid i.p., FIG. 10A): higher than those of the HFD-vehicle group | Insulin contents in pancreases relative to the STZ-vehicle group [1]: about twice as high as those of the STZ-vehicle group | Body weights [1]: comparable to those of the control group | Pancreas weights [1]: significantly greater than those of the STZ-vehicle group | Insulin Content (Gut Side) [1]: 63.0 ± 6.7 μg/pancreas | Insulin Content (Spleen Side) [1]: 120.9 ± 14.1 μg/pancreas
